In US20250302815A1, “PROTEIN TYROSINE PHOSPHATASE TARGETING LIGANDS” (CALICO LIFE SCIENCES LLC, priority 2021, published 2025):

Columns and labels:
[1] = biological target: T1, PTPN2 (HiBIT-PTPN2 in 293T.109 cells) (Homo sapiens, UniProt P17706); assay: HiBiT Degradation 293T.109 PTPN2 (Nano-Glo HiBiT Lytic Assay); format: cell-based; conditions: 24.0 hours
T1 construct: expressed in transfected cells; host or cells: 293T.109 (293T WT from ATCC)
T1 sequence (P17706 1-415): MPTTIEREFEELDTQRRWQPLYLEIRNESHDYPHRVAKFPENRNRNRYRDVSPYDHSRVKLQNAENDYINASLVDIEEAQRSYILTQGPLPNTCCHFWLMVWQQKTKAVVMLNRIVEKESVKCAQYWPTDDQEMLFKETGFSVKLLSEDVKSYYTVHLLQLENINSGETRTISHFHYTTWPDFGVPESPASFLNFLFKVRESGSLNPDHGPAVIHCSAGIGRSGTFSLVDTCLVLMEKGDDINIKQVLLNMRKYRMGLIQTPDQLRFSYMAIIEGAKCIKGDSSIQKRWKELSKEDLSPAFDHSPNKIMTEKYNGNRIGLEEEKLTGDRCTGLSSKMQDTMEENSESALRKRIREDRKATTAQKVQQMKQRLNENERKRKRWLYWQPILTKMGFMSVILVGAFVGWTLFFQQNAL
In short: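 Degradation read-out: lytic HiBiT luminescence after 24 h treatment (37 °C, 5% CO2) of 5000 293T cells per well expressing HiBiT-fused PTPN2 from an N-terminal tag. Dosing was 11 points, half-log steps down from 10 μM, in duplicate; vehicle-treated and no-reagent wells served as controls.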

[2] = biological target: T2, PTPN2 (B16F10.4 cells) (Mus musculus, UniProt Q06180); assay: HiBiT Degradation B16F10.4 PTPN2; format: cell-based; conditions: 24.0 hours
T2 construct: HiBiT; host or cells: B16F10.4
T2 sequence (Q06180 1-406): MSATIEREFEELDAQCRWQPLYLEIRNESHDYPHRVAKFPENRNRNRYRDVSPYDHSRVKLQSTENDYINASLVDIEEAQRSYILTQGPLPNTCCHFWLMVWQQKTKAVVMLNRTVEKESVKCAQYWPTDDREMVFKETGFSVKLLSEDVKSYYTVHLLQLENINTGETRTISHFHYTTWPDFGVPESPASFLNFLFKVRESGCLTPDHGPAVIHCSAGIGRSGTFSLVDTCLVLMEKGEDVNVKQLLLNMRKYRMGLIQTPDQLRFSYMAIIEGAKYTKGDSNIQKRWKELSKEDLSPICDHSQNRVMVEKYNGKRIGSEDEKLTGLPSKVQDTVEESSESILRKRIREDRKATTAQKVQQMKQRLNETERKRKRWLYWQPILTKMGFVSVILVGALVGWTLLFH

Structure (SMILES) | DC50 [1] [nM] | DC50 [2] [nM]
CC1(C)C[C@@H](Nc2cccc(-c3sc(C(=O)O)c(OCC(=O)O)c3Cl)c2)CCN1S(=O)(=O)Cc1cccc(NC(=O)C2C[C@@H]3CN(C(=O)COc4cccc5c4CN(C4CCC(=O)NC4=O)C5=O)C[C@@H]3C2)c1 (some centres unmarked) [Example 100] | 200 to 1000 | 200 to 1000
Cn1c(=O)n(C2CCC(=O)NC2=O)c2ccc(C3CCN(C(=O)Nc4cccc(CS(=O)(=O)N5CCC(Oc6cccc(-c7sc(C(=O)O)c(OCC(=O)O)c7Cl)c6)CC5)c4)CC3)cc21 (centres unmarked) [Example 103, 3-(Carboxymethoxy)-4-chloro-5-[3-[[1-[[3-[[4-[1-(2,6-dioxo-3-piperidyl)-3-methyl-2-oxo-benzimidazol-S-yl]piperidine-1-carbonyl]amino]phenyl]methylsulfonyl]-4-piperidyl]oxy]phenyl]thiophene-2-carboxylic acid] | 200 to 1000 | 50 to 200
Cn1c(=O)n(C2CCC(=O)NC2=O)c2ccc(C3CN(C(=O)Nc4cccc(CS(=O)(=O)N5CC[C@H](Nc6cccc(-c7sc(C(=O)O)c(OCC(=O)O)c7Cl)c6)CC5(C)C)c4)C3)cc21 (stereo partly drawn) [Example 106, 3-(carboxymethoxy)-4-chloro-5-[3-[[(4S)-1-[[3-[[3-[1-(2,6-dioxo-3-piperidyl)-3-methyl-2-oxo-benzimidazol-5-yl]azetidine-1-carbonyl]amino]phenyl]methylsulfonyl]-2,2-dimethyl-4-piperidyl]amino]phenyl]thiophene-2-carboxylic acid] | 50 to 200 | 50 to 200
Cn1c(=O)n(C2CCC(=O)NC2=O)c2ccc(N3CC(OCC(=O)Nc4cccc(CS(=O)(=O)N5CC[C@H](Nc6cccc(-c7sc(C(=O)O)c(OCC(=O)O)c7Cl)c6)CC5(C)C)c4)C3)cc21 (stereo partly drawn) [Example 107, 3-(carboxymethoxy)-4-chloro-5-[3-[[(4S)-1-[[3-[[2-[1-[1-(2,6-dioxo-3-piperidyl)-3-methyl-2-oxo-benzimidazol-5-yl]azetidin-3-yl]oxyacetyl]amino]phenyl]methylsulfonyl]-2,2-dimethyl-4-piperidyl]amino]phenyl]thiophene-2-carboxylic acid] | 50 to 200 | 200 to 1000
CC1(C)C[C@H](Nc2cccc(-c3sc(C(=O)O)c(OCC(=O)O)c3Cl)c2)CCN1S(=O)(=O)Cc1ccc(F)c(NC(=O)C2CN(C(=O)CNc3cccc4c3CN(C3CCC(=O)NC3=O)C4=O)C2)c1 (some centres unmarked) [Example 108] | 50 to 200 | ≥ 1000
CC1(C)C[C@@H](Nc2cccc(-c3sc(C(=O)O)c(OCC(=O)O)c3Cl)c2)CCN1S(=O)(=O)Cc1ccc(F)c(NC(=O)[C@H]2[C@@H]3CN(C(=O)CNc4cccc5c4CN(C4CCC(=O)NC4=O)C5=O)C[C@@H]32)c1 (stereo partly drawn) [Example 110, 3-(carboxymethoxy)-4-chloro-5-(3-(((4S)-1-((3-((1R,5S,6r)-3-((2-(2,6-dioxopiperidin-3-yl)-1-oxoisoindolin-4-yl)glycyl)-3-azabicyclo[3.1.0]hexane-6-carboxamido)-4-fluorobenzyl)sulfonyl)-2,2-dimethylpiperidin-4-yl)amino)phenyl)thiophene-2-carboxylic acid] | 50 to 200 | 200 to 1000
CC1(C)C[C@H](Nc2cccc(-c3sc(C(=O)O)c(OCC(=O)O)c3Cl)c2)CCN1S(=O)(=O)Cc1ccc(F)c(NC(=O)[C@H]2[C@@H]3CN(C(=O)CNc4cccc5c4CN(C4CCC(=O)NC4=O)C5=O)C[C@@H]32)c1 (stereo partly drawn) [Example 111, 3-(carboxymethoxy)-4-chloro-5-(3-(((4R)-1-((3-((1R,5S,6r)-3-((2-(2,6-dioxopiperidin-3-yl)-1-oxoisoindolin-4-yl)glycyl)-3-azabicyclo[3.1.0]hexane-6-carboxamido)-4-fluorobenzyl)sulfonyl)-2,2-dimethylpiperidin-4-yl)amino)phenyl)thiophene-2-carboxylic acid] | 200 to 1000 | ≥ 1000
Cn1c(=O)n(C2CCC(=O)NC2=O)c2ccc(N3CCC(C(=O)Nc4cccc(CS(=O)(=O)N5CCC(Nc6cccc(-c7sc(C(=O)O)c(OCC(=O)O)c7Cl)c6)CC5)c4)CC3)cc21 (centres unmarked) [Example 112, 3-(carboxymethoxy)-4-chloro-5-[3-[[1-[[3-[[1-[1-(2,6-dioxo-3-piperidyl)-3-methyl-2-oxo-benzimidazol-5-yl]piperidine-4-carbonyl]amino]phenyl]methylsulfonyl]-4-piperidyl]amino]phenyl]thiophene-2-carboxylic acid] | 50 to 200 | 50 to 200
Cn1c(=O)n(C2CCC(=O)NC2=O)c2ccc(N3CC4(CCN(C(=O)Nc5cccc(CS(=O)(=O)N6CCC(Nc7cccc(-c8sc(C(=O)O)c(OCC(=O)O)c8Cl)c7)CC6)c5)CC4)C3)cc21 (centres unmarked) [Example 113, 3-(carboxymethoxy)-4-chloro-5-[3-[[1-[[3-[[2-[1-(2,6-dioxo-3-piperidyl)-3-methyl-2-oxo-benzimidazol-5-yl]-2,7-diazaspiro[3.5]nonane-7-carbonyl]amino]phenyl]methylsulfonyl]-4-piperidyl]amino]phenyl]thiophene-2-carboxylic acid] | 50 to 200 | 50 to 200

Results, then the compound that gave them:

DC50 [1] [nM] | DC50 [2] [nM] | Structure (SMILES)
50 to 200 | 200 to 1000 | CC1(C)C[C@@H](Nc2cccc(-c3sc(C(=O)O)c(OCC(=O)O)c3Cl)c2)CCN1S(=O)(=O)Cc1cccc(NC(=O)[C@H]2[C@@H]3CN(C(=O)CNc4cccc5c4CN(C4CCC(=O)NC4=O)C5=O)C[C@@H]32)c1 (some centres unmarked) [Example 98]
50 to 200 | < 50 | Cn1c(=O)n(C2CCC(=O)NC2=O)c2ccc(C3CCN(C(=O)Nc4cccc(CS(=O)(=O)N5CCC(Nc6cccc(-c7sc(C(=O)O)c(OCC(=O)O)c7Cl)c6)CC5)c4F)CC3)cc21 (centres unmarked) [Example 99, 3-(carboxymethoxy)-4-chloro-5-[3-[[1-[[3-[[4-[1-(2,6-dioxo-3-piperidyl)-3-methyl-2-oxo-benzimidazol-5-yl]piperidine-1-carbonyl]amino]-2-fluoro-phenyl]methylsulfonyl]-4-piperidyl]amino]phenyl]thiophene-2-carboxylic acid]
50 to 200 | 50 to 200 | CC1(C)C[C@@H](Nc2cccc(-c3sc(C(=O)O)c(OCC(=O)O)c3Cl)c2)CCN1S(=O)(=O)Cc1cccc(NC(=O)[C@H]2[C@@H]3CN(C(=O)COc4cccc5c4CN(C4CCC(=O)NC4=O)C5=O)C[C@@H]32)c1 (some centres unmarked) [Example 101]
50 to 200 | 50 to 200 | Cn1c(=O)n(C2CCC(=O)NC2=O)c2ccc(N3CCC4(CC3)CN(C(=O)Nc3cccc(CS(=O)(=O)N5CCC(Nc6cccc(-c7sc(C(=O)O)c(OCC(=O)O)c7Cl)c6)CC5)c3)C4)cc21 (centres unmarked) [Example 102, 3-(carboxymethoxy)-4-chloro-5-[3-[[1-[[3-[[7-[1-(2,6-dioxo-3-piperidyl)-3-methyl-2-oxo-benzimidazol-5-yl]-2,7-diazaspiro[3.5]nonane-2-carbonyl]amino]phenyl]methylsulfonyl]-4-piperidyl]amino]phenyl]thiophene-2-carboxylic acid]
50 to 200 | < 50 | Cn1c(=O)n(C2CCC(=O)NC2=O)c2ccc(C3CCN(C(=O)Nc4cc(CS(=O)(=O)N5CCC(Nc6cccc(-c7sc(C(=O)O)c(OCC(=O)O)c7Cl)c6)CC5)ccc4F)CC3)cc21 (centres unmarked) [Example 104, 3-(carboxymethoxy)-4-chloro-5-[3-[[1-[[3-[[4-[1-(2,6-dioxo-3-piperidyl)-3-methyl-2-oxo-benzimidazol-5-yl]piperidine-1-carbonyl]amino]-4-fluoro-phenyl]methylsulfonyl]-4-piperidyl]amino]phenyl]thiophene-2-carboxylic acid]
50 to 200 | 200 to 1000 | Cn1c(=O)n(C2CCC(=O)NC2=O)c2ccc(N3CCC(OCC(=O)Nc4cccc(CS(=O)(=O)N5CC[C@H](Nc6cccc(-c7sc(C(=O)O)c(OCC(=O)O)c7Cl)c6)CC5(C)C)c4)CC3)cc21 (stereo partly drawn) [Example 105, 3-(carboxymethoxy)-4-chloro-5-[3-[[(4S)-1-[[3-[[2-[[1-[1-(2,6-dioxo-3-piperidyl)-3-methyl-2-oxo-benzimidazol-5-yl]-4-piperidyl]oxy]acetyl]amino]phenyl]methylsulfonyl]-2,2-dimethyl-4-piperidyl]amino]phenyl]thiophene-2-carboxylic acid]
< 50 | 200 to 1000 | CC1(C)C[C@@H](Nc2cccc(-c3sc(C(=O)O)c(OCC(=O)O)c3Cl)c2)CCN1S(=O)(=O)Cc1ccc(F)c(NC(=O)C2CN(C(=O)CNc3cccc4c3CN(C3CCC(=O)NC3=O)C4=O)C2)c1 (some centres unmarked) [Example 109]
